Assay results published in PMC8667882 (Journal of Enzyme Inhibition and Medicinal Chemistry, 2021).

System: CN (mouse brain extract)
Settings: peptide 25 nM, RII substrate

GPHPVIVIT [pep1s]
effect on CN activity at 25 nM: minimal effects on CN activity
